From patent US20230090742A1, “AMINOPYRIMIDINYLAMINOBENZONITRILE DERIVATIVES AS NEK2 INHIBITORS” (Sumitomo Pharma Oncology, Inc., priority 2020, published 2023)

How the values were obtained:
NEK2 = target: T1, NEK2 (Homo sapiens, UniProt P51955); assay: NanoBRET Target Engagement Intracellular Kinase Assay for NEK2 in transfected HEK293 cells; type: cell-based; conditions: NEK2 target engagement, read-out: NanoBRET IC50
T1 construct: expressed in transfected cells; host or cells: HEK293
T1 sequence (P51955 1-445): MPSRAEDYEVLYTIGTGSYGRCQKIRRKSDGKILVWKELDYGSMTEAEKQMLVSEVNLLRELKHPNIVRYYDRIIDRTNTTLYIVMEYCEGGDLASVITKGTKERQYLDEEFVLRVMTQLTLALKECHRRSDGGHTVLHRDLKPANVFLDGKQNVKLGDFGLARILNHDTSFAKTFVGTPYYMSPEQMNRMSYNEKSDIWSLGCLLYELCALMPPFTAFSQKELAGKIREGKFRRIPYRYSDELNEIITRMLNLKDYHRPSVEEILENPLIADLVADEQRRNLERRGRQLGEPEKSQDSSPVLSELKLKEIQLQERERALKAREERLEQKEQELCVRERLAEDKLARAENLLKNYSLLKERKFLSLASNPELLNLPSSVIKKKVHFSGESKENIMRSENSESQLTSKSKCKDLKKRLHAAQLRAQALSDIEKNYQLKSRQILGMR
Protocol: In this example, the compounds described herein were tested for their inhibitory activity against NEK2 using a model of in vivo activity by the NanoBRET™ Target Engagement Intracellular Kinase Assay (Reaction Biology Corp.). The assay was performed according to the manufacturer's protocol, as detailed below.
HEK293 cells were cultivated (70-80% confluence) prior to the assay. The sample was trypsinized and HEK293 cells were collected.
To prepare lipid: DNA complexes, a 10 μg/ml solution of DNA in Opti-MEM without serum was prepared that consisted of the following ratios of carrier DNA and DNA encoding NanoLuc® fusion: 9.0 μg/ml of Transfection Carrier DNA, 1.0 μg/ml of NanoLuc fusion vector DNA and 1 ml of Opti-MEM without phenol red. The solution was mixed thoroughly. 30 μl of FuGENE HD Transfection Reagent was added into each milliliter of DNA mixture to form lipid: DNA complex. The sample was mixed by inversion 10 times and then incubated at ambient temperature for 20 minutes to allow complexes to form. In a sterile, conical tube, 1 part of lipid:DNA complex was mixed with 20 parts of HEK293 cells in suspension. The resulting sample was mixed gently by inversion 5 times. The cell and lipid: DNA complex was dispensed into a sterile tissue culture dish and incubated for 22-24 hours.
Each test compound is delivered from the compound source plate to the wells of 384-well white NBS plate by Echo 550.
Step 3. Preparation of Cells with NanoBRET™ Tracer K5 Reagent:
The medium was removed from the dish with the transfected HEK293 cells via aspiration, trypsinized and cells were allowed to dissociate from the dish. Trypsin was neutralized using medium containing serum and centrifuged at 200×g for 5 minutes to pellet the cells. The cell density was adjusted to 2×10^5 cells/ml in Opti-MEM without phenol red.
The Complete 20× NanoBRET™ Tracer K5 Reagent with Tracer Dilution Buffer was prepared according to the manufacturer's instructions. One part of Complete 20× NanoBRET™ Tracer Reagent was added to 20 parts of cells in the tube. The sample was mixed gently by inversion 10 times. Next, the cell suspension was dispensed into white, 384-well NBS plates with a final tracer K5 concentration of 2 μM. The plate was incubated at 37° C., 5% CO2 for 1 hour. A separate set of samples without tracer were prepared for background correction steps.
The plate was removed from the incubator and equilibrated to room temperature for 15 minutes. The 3× Complete Substrate plus Inhibitor Solution in Assay Medium (Opti-MEMR I Reduced Serum Medium, no phenol red) was prepared just before measuring BRET. The 3× Complete Substrate plus Inhibitor Solution was added to each well of the 384-well plate and incubated for 2-3 minutes at room temperature. The donor emission wavelength (460 nm) and acceptor emission wavelength (600 nm) were measured using the Envision 2104 plate reader.
To generate raw BRET ratio values, the acceptor emission value (600 nm) was divided by the donor emission value (460 nm) for each sample. To correct for background, the BRET ratio in the absence of tracer (average of no-tracer control samples) was subtracted from the BRET ratio of each sample.
BRET Ratio=[(Acceptor sample÷Donor sample)−(Acceptor no-tracer control÷Donor no-tracer control)]

EZH2 expression = assay: Flow cytometry analysis for EZH2 expression in SW480 cells; type: cell-based; conditions: Homo sapiens, 24 hours treatment, 0-1000 nM, haploid and diploid cells, read-out: dose dependent decrease in EZH2 expression, IC50
Protocol: Reagents. MDA-MB-231 (Breast adenocarcinoma, triple negative breast cancer) and SW480 (colorectal adenocarcinoma, stem-like subtype) cells were purchased from ATCC and cultured as per manufacturer's instruction. Thymidine (Sigma, T9250) stock solution (100 mM) was prepared in PBS. 2′-Deoxycytidine (Sigma, D897) stock solution (240 mM) was prepared in distilled H2O. Nocodazole (Selleck Chemicals, S2775) stock solution (5 mg/mL) was made in dimethyl sulfoxide (DMSO). FxCycle Far Red stain (F10348) for cell cycle analysis was purchased from Thermo Fisher Scientific.
Antibodies. Polyclonal antibodies to phosphorylated-Ser55 Hec1 (PA5-85846; 1:1000) were purchased from ThermoFisher Scientific, and Phospho-Thr320 PP1α (2581S; 1:1000) and Total PP1α (2582S; 1:1000) were purchased from Cell Signaling Technologies. Monoclonal antibodies to Phospho-Ser10 Histone H3 (53348S; 1:1000), Total Histone H3 (14269; 1:5000), and EZH2-FITC (30233, 1:50) antibodies were purchased from Cell Signaling Technologies; Total Hec1 (ab109496; 1:10000) was purchased from Abcam; and Total NEK2 (sc-55601; 1:200) and GAPDH (sc-365062; 1:1000-2000) antibodies were purchased from Santa Cruz Technologies.
Flow Cytometry Analysis. […] A minimum of 100,000 events were analyzed in each sample, and the results were evaluated using FlowJo software. […]

IC50 (NEK2): ≤ 0.05 µM | IC50 (EZH2 expression): 0.184 µM
SMILES: N#Cc1c(Nc2nc(Nc3ccc(N4CCNCC4)cc3)ncc2Cl)cccc1OCc1ccccc1F [Compound 16, 2-((5-chloro-2-((4-(piperazin-1-yl)phenyl)amino)pyrimidin-4-yl)amino)-6-((2-fluorobenzyl)oxy)benzonitrile]
